Measured values reported in patent publication US12448382B2, “Heterocyclic compounds for mediating tyrosine kinase 2 activity” (GUANGZHOU INNOCARE PHARMA TECH CO., LTD., priority 2019, dated 2025).
Read-outs that look alike come from different tables or passages of the source.

How the values were obtained:
[1] = target: T1, human recombinant JAK2 protein (Homo sapiens, UniProt O60674); experiment: JAK2 Inhibition Assay (HTRF kinase assay); assay type: biochemical; settings: human recombinant JAK2, 2.5 μM ATP substrate solution
T1 construct: purchased Carna Biosciences 08-045
Description: The effect of the compounds of the present invention on the enzymatic activity of JAK2 was assessed by detecting the substrate phosphorylation level in a kinase reaction using the HTRF kinase assay detection kit (Cisbio, Cat. No. 62TK0PEC).
(§1) The experimental method is generally described below:
A reaction buffer contained the following components: an enzyme reaction buffer (1×), 5 mM MgCl2, 1 mM DTT and 0.01% Brij35 from the kit. A JAK2 kinase solution contained a human recombinant JAK2 protein (Carna Biosciences, 08-045) diluted in the reaction buffer to 0.15 ng/μL. A substrate reaction solution contained 2.5 μM ATP and 0.25 μM of a biotinylated tyrosine kinase substrate from the kit in the reaction buffer. A detection solution contained 0.1 ng/μL Eu^3+-labeled cage antibody (Cisbio, 61T66KLB) and 12.5 nM streptavidin-labeled XL665 (Cisbio, 610SAXLB) in the reaction buffer.
(§2) The test compound was dissolved in DMSO to 10 μM, followed by a serial 4-fold dilution with DMSO to a minimum concentration of 0.061 nM. Each concentration was further diluted 40-fold with the reaction buffer.
To a 384-well assay plate (Corning, 3674) were added 4 μL of compound solution and 2 μL of JAK2 kinase solution. The mixture was mixed and incubated at room temperature for 15 minutes, and then added with 4 μL of the substrate reaction solution. After further incubation at room temperature for 30 minutes, the reaction mixture was added with an equal volume of 10 μL detection solution and allowed to stand at room temperature for 30 minutes. An Envision plate reader (Perkin Elmer) was then used to measure the progress of the reaction at 620 nm and 665 nm. The ratio of absorbances at 665 nm and 620 nm was positively correlated with the degree of substrate phosphorylation, therefore the activity of JAK2 kinase was detected. In the experiment, the group without JAK2 kinase protein was treated as the 100% inhibition group, and the group with JAK2 kinase protein but not the test compound was treated as the 0% inhibition group. The percentage of inhibition on JAK2 kinase activity by the test compound was calculated using the following formula: Percentage of inhibition=100−100*(ratiocompound−ratio100% inhibition)/(ratio0% inhibition−ratio100% inhibition)
The IC50 value of the test compound was calculated from 8 concentration points using the XLfit softwere (ID Business Solutions Ltd., UK) by the following formula: Y=Bottom+(Top−Bottom)/(1+10^((log IC50−X)×slope factor))
Where Y was the percentage of inhibition, X was the logarithm of the concentration of the test compound. Bottom was the bottom plateau value of the S-shaped curve, Top was the top plateau value of the S-shaped curve, and slope factor was the slope coefficient of the curve.

[2] = target: T2, human recombinant TYK2 protein (Homo sapiens, UniProt P29597); experiment: TYK2 Inhibition Assay (HTRF kinase assay); assay type: biochemical; settings: human recombinant TYK2, 11.25 μM ATP substrate solution
T2 construct: purchased Carna Biosciences 08-147
T2 sequence (P29597 871-1187 limits assumed): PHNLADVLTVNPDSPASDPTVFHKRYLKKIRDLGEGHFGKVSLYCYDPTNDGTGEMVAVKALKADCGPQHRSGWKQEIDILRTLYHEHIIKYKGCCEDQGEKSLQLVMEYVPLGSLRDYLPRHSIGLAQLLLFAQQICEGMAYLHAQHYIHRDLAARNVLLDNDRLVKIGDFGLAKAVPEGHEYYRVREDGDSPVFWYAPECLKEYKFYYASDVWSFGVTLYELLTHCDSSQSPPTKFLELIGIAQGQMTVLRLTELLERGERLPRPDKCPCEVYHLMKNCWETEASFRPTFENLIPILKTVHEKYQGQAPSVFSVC
Description: The effect of the compounds of the present invention on the enzymatic activity of TYK2 was assessed by detecting the substrate phosphorylation level in a kinase reaction using the HTRF kinase assay detection kit (Cisbio, Cat. No. 62TK0PEC).
as §1
A reaction buffer contained the following components: an enzyme reaction buffer (1×), 5 mM MgCl2 mM DTT and 0.01% Brij35 from the kit. A TYK2 kinase solution contained human recombinant TYK2 protein (Carna Biosciences, 08-147) diluted in the reaction buffer to 0.25 ng/μL. A substrate reaction solution contained 11.25 μM ATP and 0.5 μM of a biotinylated tyrosine kinase substrate from the kit in the reaction buffer. A detection solution contained 0.1 ng/μL Eu^3+-labeled cage antibody (Cisbio, 61T66KLB) and 25 nM streptavidin-1 added XL665 (Cisbio, 610SAXLB) in the reaction buffer.
as §2
To a 384-well assay plate (Corning, 3674) were added 4 μL of compound solution and 2 μL of TYK2 kinase solution. The mixture was mixed and incubated at room temperature for 15 minutes, and then added with 4 μL of the substrate reaction solution. After further incubation at room temperature for 40 minutes, the reaction mixture was added with an equal volume of 10 μL detection solution and allowed to stand at room temperature for 30 minutes. An Envision plate reader (Perkin Elmer) was then used to measure the progress of the reaction at 620 nm and 665 nm. The ratio of absorbances at 665 nm and 620 nm was positively correlated with the degree of substrate phosphorylation, therefore the activity of TYK2 kinase was detected. In the experiment, the group without TYK2 kinase protein was treated as the 100% inhibition group, and the group with TYK2 kinase protein but not the test compound was treated as the 0% inhibition group. The percentage of inhibition on TYK2 kinase activity by the test, compound was calculated using the following formula: Percentage of inhibition=100−100*(ratiocompound−ratio100% inhibition)/(ratio0% inhibition−ratio100% inhibition)
The IC50 value of the test compound was calculated from 8 concentration points using the XLfit software (ID Business Solutions Ltd., UK) by the following formula: Y=Bottom+(Top−Bottom)/(1+10^((log IC50−X)slope factor))
(§3) Where Y was the percentage of inhibition, X was the logarithm of the concentration of the test compound, Bottom was the bottom plateau value of the S-shaped curve, Top was the top plateau value of the S-shaped curve, and slope factor was the slope coefficient of the curve.

[3] = tested on: IL-12-induced IFN-γ secretion in NK92 cells; experiment: Inhibition of IL-12-induced IFN-γ Secretion in NK92 Cells (ELISA); assay type: cell-based, human; settings: 24 hours incubation, 8 concentration points, read-out: IC50 (NK92_IL12/IFNγ)
Description: Inhibition of IL-12-induced IFN-γ Secretion in NK92 Cells
The effect of the compounds of the present invention on IFN-γ secretion induced by IL-12 in NK92 cells was evaluated by an enzyme-linked immunosorbent assay (ELISA).
IL-12 receptor is mainly expressed in activated T-cells, NK cells (NK92 is a NK cell line), DC cells, and B-cells. When binding to IL-12, it activates JAK2/TYK2 signal transduction pathway within NK cells and T lymphocytes, thereby inducing secretion of IFN-γ.
as §1
The test compound was dissolved in DMSO to 2.5 mM, followed by a serial 4-fold dilution with DMSO to a minimum concentration of […]. Each concentration was further diluted 50-fold with an FBS-free MEMα medium (Gibco, 12561-056).
NK92 cells (Nanjing Cobioer, CBP60980) were cultured in a complete MEMα medium containing 12.5% FBS (Ausbian, VS500T), 12.5% horse serum (Gibco, 16050-122), 0.02 mM folic acid (Sigma, F8758), 0.2 mM inositol (Sigma, 17850), 0.55 mM β-mercaptoethanol (Gibco, 21985-023), 200 U/mL IL-2 (R&D Systems, 202-1L), and 100 U/mL penicillin (Thermofisher, 15140122). When covering 80-90% of the culture container surface, the cells were dispersed and plated on a 96-well plate (Thermofisher, 167425) with 100,000 cells per well (80 μL of the complete MEMα medium without IL-2). The 96-well plate was then incubated overnight in a 37° C./5% CO2 incubator.
After overnight incubation, 10 μL of the test compound and 10 μL of 50 ng/mL IL-12 (R & D Systems, 219-1L) were added to each well and mix gently, and the 96-well plate was incubated in the 37° C./5% CO2 incubator for additional 24 hours. The plate as centrifuged at 800 rpm for 10 minutes at room temperature and 50 μL of the supernatant from each well was transferred to another 96-well plate (Sigma, CLS3695) coated with anti-IFN-γ antibody. The amount of IFN-γ secretion was detected following the instruction from the Human IFN-γ DuoSet ELISA kit (R & D Systems, DY285B). In the experiment, the group with IL-12 and the test compound being replaced with the MEMα medium was the non-stimulated control group (100% inhibition), and the group with IL-12 and 0.2% DMSO was the stimulated group (0% inhibition). The percentage of inhibition on IL-12 induced IFN-γ secretion in NK-92 cells by the test compound was calculated using the following formula: Percentage of inhibition=100−100*(signalcompound−signalnon-stimulated control)/(signalstimulated control−signalnon-stimulated control)
The IC50 value of the test compound was calculated front 8 concentration points using the XLfit software (ID Business Solutions Ltd., UK) by the following formula: Y=Bottom+(Top−Bottom)/(1+10^((log IC50−X)×slope factor))
as §3

T1 sequence (O60674 826-1132 limits assumed): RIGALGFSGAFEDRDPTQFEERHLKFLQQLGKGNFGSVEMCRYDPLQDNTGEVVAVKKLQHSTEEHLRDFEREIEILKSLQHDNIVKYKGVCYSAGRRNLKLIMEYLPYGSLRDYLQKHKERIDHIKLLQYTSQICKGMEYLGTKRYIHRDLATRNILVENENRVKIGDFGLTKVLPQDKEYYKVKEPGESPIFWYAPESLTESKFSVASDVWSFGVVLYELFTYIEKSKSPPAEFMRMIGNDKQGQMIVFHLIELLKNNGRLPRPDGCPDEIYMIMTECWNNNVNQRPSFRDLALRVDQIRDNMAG

IC50 [1] | IC50 [2] | IC50 ([3]; Homo sapiens) | IC50 [3] | Compound
13 nM | 7.4 nM | 4550 nM |  | Cc1nnc(N2C[C@@]3(C)CN(c4nc(Nc5cnn(C)c5)ncc4Cl)C[C@@]3(C)C2)o1 [Compound 83, 5-chloro-4-((3aR,6aS)-3a,6a-dimethyl-5-(5-methyl-1,3,4-oxadiazol-2-yl)hexahydropyrrolo[3,4-c]pyrrol-2(1H)-yl)-N-(1-methyl-1H-pyrazol-4-yl)pyrimidin-2-amine]
3 nM | 1 nM | 551 nM |  | C[C@@]12CN(C(=O)C3CC3)C[C@]1(C)CN(c1nc(Nc3cn[nH]c3)ncc1Cl)C2 [Compound 23, ((3aR,6aS)-5-(2-((1H-pyrazol-4-yl)amino)-5-chloropyrimidin-4-yl)-3a,6a-dimethylhexahydropyrrolo[3,4-c]pyrrol-2(1H)-yl)(cyclopropyl)methanone]
0.9 nM | 0.2 nM | 934 nM |  | Cn1cc(Nc2ncc(Cl)c(N3C[C@]4(C)CN(c5ccccn5)C[C@]4(C)C3)n2)cn1 [Compound 54, 5-chloro-4-((3aR,6aS)-3a,6a-dimethyl-5-(pyridin-2-yl)hexahydropyrrolo[3,4-c]pyrrol-2(1H)-yl)-N-(1-methyl-1H-pyrazol-4-yl)pyrimidin-2-amine]
2.5 nM | 0.7 nM | 709 nM |  | Cn1cc(Nc2ncc(Cl)c(N3C[C@]4(C)CN(C(=O)CC(F)(F)F)C[C@]4(C)C3)n2)cn1 [Compound 48, 1-((3aR,6aS)-5-(5-chloro-2-((1-methyl-1H-pyrazol-4-yl)amino)pyrimidin-4-yl)-3a,6a-dimethylhexahydropyrrolo[3,4-c]pyrrol-2(1H)-yl)-3,3,3-trifluoropropan-1-one]
170 nM | 8.5 nM | 4140 nM |  | C[C@@]12CN(C(=O)C3CC3)C[C@]1(C)CN(c1nc(Nc3cnn(CCO)c3)ncc1F)C2 [Compound 13]
3.3 nM | 1.2 nM | 3540 nM |  | Cc1cnc(Nc2cnn(C)c2)nc1N1C[C@@H]2CN(C(=O)CC#N)C[C@]2(C)C1 (racemic) [Compound 71, cis-3-(3a-methyl-5-(5-methyl-2-((1-methyl-1H-pyrazol-4-yl)amino)pyrimidin-4-yl)hexahydropyrrolo[3,4-c]pyrrol-2(1H)-yl)-3-oxopropanenitrile]
20 nM | 8.6 nM | 3620 nM |  | Cn1cc(Nc2ncc(Cl)c(N3C[C@]4(C)CN(C(=O)C(C)(C)O)C[C@]4(C)C3)n2)cn1 [Compound 44, 1-((3aR,6aS)-5-(5-chloro-2((1-methyl-1H-pyrazol-4-yl)amino)pyrimidin-4-yl)-3a,6a-dimethylhexahydropyrrolo[3,4-c]pyrrol-2(1H)-yl)-2-hydroxy-2-methylpropan-1-one]
2.2 nM | 6 nM |  | 291 nM | 4-(3aR,6aS)-5-(isoxazol-5-ylmethyl)-3a,6a-dimetylhexahydropyrrolo[3,4-c]pyrrol-2(1H)-yl)-5-methyl-N-(1-methyl-1H-pyrazol-4-yl)pyrimidin-2-amine [Compound 67]
68 nM | 14 nM | 1320 nM |  | Cn1cc(Nc2ncc(F)c(N3C[C@]4(C)CN(CC(F)F)C[C@]4(C)C3)n2)cn1 [Compound 14, 4-((3aR,6aS)-5-(2,2-difluoroethyl)-3a,6a-dimethylhexahydropyrrolo[3,4-c]pyrrol-2(1H)-yl)-5-fluoro-N-(1-methyl-1H-pyrazol-4-yl)pyrimidin-2-amine]
7.3 nM | 2.7 nM | 597 nM |  | CNC(=O)c1ccc(Nc2ncc(Cl)c(N3C[C@]4(C)CN(C(=O)C5CC5)C[C@]4(C)C3)n2)cn1 [Compound 51, 5-((5-chloro-4-((3aR,6aS)-5-(cyclopropanecarbonyl)-3a,6a-dimethylhexahydropyrrolo[3,4-c]pyrrol-2(1H)-yl)pyrimidin-2-yl)amino)-N-methylpicolinamide]
